Assay [1] relates to MT4. Put plainly: Compound was tested for reduction of the viability of mock infected MT-4 cell in test-I. To be noted: Homo sapiens. The format is functional.
The subject of assay [2] is MT4. Put plainly: Compound was tested for reduction of the viability of mock infected MT-4 cell in test-II. The format is functional. To be noted: Homo sapiens.
Assay [3] can be described thus: Ratio of cytotoxic concentration (CC50) in test-I to that of EC50 of compound. Type of assay: functional, Homo sapiens.
Assay [4] in a line: Ratio of cytotoxic concentration (CC50) in test-II to that of EC50 of compound. Type of assay: functional, Homo sapiens.
Assay [5] is described as follows: Ratio of cytotoxic concentration (CC50) in test-I to that of EC50 of compound; Not tested. The format is functional.
In assay [6] the test system is Human immunodeficiency virus 1. The assay can be described thus: Inhibition of HIV-induced cytopathogenicity in MT-4 cell (ZIDOVUDINE control). The format is functional, organism-based. To be noted: Human immunodeficiency virus 1, MT4.

Drawing on ChEMBL document CHEMBL1132828, “Pharmacophore identification of a specific CXCR4 inhibitor, T140, leads to development of effective anti-HIV agents with very high selectivity indexes” (Bioorg Med Chem Lett, 2000), this text covers CC50, Ratio and EC50 for 5 compounds.

Where a SMILES comes first, the peptide text is derived from it. Bridges are numbered along the chain shown (N, C = ends). [ ]: non-standard residue; d: D form. 2Nal = N[C@@H](Cc1ccc2ccccc2c1)C(=O)O; Cit = NC(=O)NCCC[C@H](N)C(=O)O

The CC50 is the concentration that lowers cell viability or growth by half. Read a low CC50 as harm at low concentration. What is called EC50 is the concentration giving half of the maximal effect. A higher EC50 goes with weaker potency.

For `NCCCC[C@@H]1NC(=O)[C@H](CCCN=C(N)N)NC(=O)[C@H](Cc2ccc(O)cc2)NC(=O)[C@@H](NC(=O)[C@H](Cc2ccc3ccccc3c2)NC(=O)[C@H](CCCNC(N)=O)NC(=O)[C@@H](N)CCCN=C(N)N)CSSC[C@@H](C(=O)N[C@@H](CCCN=C(N)N)C(=O)O)NC(=O)[C@H](CCCNC(N)=O)NC(=O)[C@H](CCCN=C(N)N)NC(=O)[C@H](Cc2ccc(O)cc2)NC(=O)[C@@H]2CCCN2C(=O)[C@@H](CCCCN)NC1=O`, the cytotoxic concentration (CC50) in the assay on MT4 [1] is > 80 µM; in the assay on MT4 [2], 260 µM. In addition, the Ratio was >180 in assay [3] and 570 in assay [4].
The corresponding values for `NCCCC[C@@H]1NC(=O)[C@H](CCCN=C(N)N)NC(=O)[C@H](Cc2ccc(O)cc2)NC(=O)[C@@H](NC(=O)[C@H](Cc2ccc3ccccc3c2)NC(=O)[C@H](CCCN=C(N)N)NC(=O)[C@@H](N)CCCN=C(N)N)CSSC[C@@H](C(=O)N[C@@H](CCCN=C(N)N)C(=O)O)NC(=O)[C@H](CCCNC(N)=O)NC(=O)[C@H](CCCNC(N)=O)NC(=O)[C@H](Cc2ccc(O)cc2)NC(=O)[C@@H]2CCCN2C(=O)[C@@H](CCCCN)NC1=O` are > 80 µM, 310 µM, >5300 and 20000.
`C[C@@H]1NC(=O)[C@H](Cc2ccc(O)cc2)NC(=O)[C@@H](NC(=O)[C@H](Cc2ccc3ccccc3c2)NC(=O)[C@H](CCCN=C(N)N)NC(=O)[C@@H](N)CCCN=C(N)N)CSSC[C@@H](C(=O)N[C@@H](CCCN=C(N)N)C(=O)O)NC(=O)[C@H](CCCNC(N)=O)NC(=O)[C@H](CCCN=C(N)N)NC(=O)[C@H](Cc2ccc(O)cc2)NC(=O)[C@@H]2CCCN2C(=O)[C@@H](CCCCN)NC(=O)[C@H](CCCCN)NC1=O`: the CC50 with MT4 [1] is > 40 µM. Also, the Ratio in assay [5] is reported as >4500.
In the case of `NCCCC[C@@H]1NC(=O)[C@H](CCCN=C(N)N)NC(=O)[C@H](Cc2ccc(O)cc2)NC(=O)[C@@H](NC(=O)[C@H](Cc2ccc3ccccc3c2)NC(=O)[C@H](CCCN=C(N)N)NC(=O)[C@@H](N)CCCN=C(N)N)CSSC[C@@H](C(=O)N[C@@H](CCCN=C(N)N)C(=O)O)NC(=O)[C@H](CCCNC(N)=O)NC(=O)[C@H](CCCN=C(N)N)NC(=O)[C@H](Cc2ccc(O)cc2)NC(=O)[C@@H]2CCCN2C(=O)[C@@H](CCCCN)NC1=O` (H-RR[2Nal]CYRK[dK]PYR[Cit]CR-OH; disulfide 4-13), the cytotoxic concentration (CC50) with MT4 [1] was > 1 µM; in the assay on MT4 [2], 96 µM. Moreover, the Ratio in assay [3] is listed as >>300; in assay [4], 29000.
Regarding `Cc1cn([C@H]2C[C@H](N=[N+]=[N-])[C@@H](CO)O2)c(=O)[nH]c1=O` [ZIDOVUDINE], the figures for the CC50 in the assay with MT4 [1] and in the assay on MT4 [2] were 190 µM and < 20 µM, respectively. Moreover, the Ratio in assay [3] is 4000; in assay [4] it was <410. The 50% effective concentration (EC50) in assay [6] came out at 0.048 µM.
